Assay results reported in ChEMBL document CHEMBL5154776, “Discovery of Potent and Orally Bioavailable Platelet-Derived Growth Factor Receptor (PDGFR) Inhibitors for the Treatment of Osteosarcoma” (J Med Chem, 2022).
Calls of active or inactive are those of the source.

Assays:
[1] = tested on: HOS-TE85; test: Antitumor activity against human MNNG/HOS cells xenografted in BALB/c nude mouse assessed as reduction in tumor growth at 15 to 30 mg/kg/day, po dosed for 14 days; format: functional, organism-based; conditions: dose lower […], dose upper 30.0 mg/kg/day, time 14.0 day
[2] = target: T1, Platelet-derived growth factor receptor beta (Homo sapiens, UniProt P09619); test: Inhibition of PDGFRbeta in PDGF AA/BB stimulated human MG-63 cells assessed as reduction in fluorescence intensity measured after 48 hrs by DAPI staining based immunofluorescence analysis; format: cell-based; conditions: dose 0.1-0.4 µM, DDE = dose-dependent effect
T1 sequence (P09619 whole entry): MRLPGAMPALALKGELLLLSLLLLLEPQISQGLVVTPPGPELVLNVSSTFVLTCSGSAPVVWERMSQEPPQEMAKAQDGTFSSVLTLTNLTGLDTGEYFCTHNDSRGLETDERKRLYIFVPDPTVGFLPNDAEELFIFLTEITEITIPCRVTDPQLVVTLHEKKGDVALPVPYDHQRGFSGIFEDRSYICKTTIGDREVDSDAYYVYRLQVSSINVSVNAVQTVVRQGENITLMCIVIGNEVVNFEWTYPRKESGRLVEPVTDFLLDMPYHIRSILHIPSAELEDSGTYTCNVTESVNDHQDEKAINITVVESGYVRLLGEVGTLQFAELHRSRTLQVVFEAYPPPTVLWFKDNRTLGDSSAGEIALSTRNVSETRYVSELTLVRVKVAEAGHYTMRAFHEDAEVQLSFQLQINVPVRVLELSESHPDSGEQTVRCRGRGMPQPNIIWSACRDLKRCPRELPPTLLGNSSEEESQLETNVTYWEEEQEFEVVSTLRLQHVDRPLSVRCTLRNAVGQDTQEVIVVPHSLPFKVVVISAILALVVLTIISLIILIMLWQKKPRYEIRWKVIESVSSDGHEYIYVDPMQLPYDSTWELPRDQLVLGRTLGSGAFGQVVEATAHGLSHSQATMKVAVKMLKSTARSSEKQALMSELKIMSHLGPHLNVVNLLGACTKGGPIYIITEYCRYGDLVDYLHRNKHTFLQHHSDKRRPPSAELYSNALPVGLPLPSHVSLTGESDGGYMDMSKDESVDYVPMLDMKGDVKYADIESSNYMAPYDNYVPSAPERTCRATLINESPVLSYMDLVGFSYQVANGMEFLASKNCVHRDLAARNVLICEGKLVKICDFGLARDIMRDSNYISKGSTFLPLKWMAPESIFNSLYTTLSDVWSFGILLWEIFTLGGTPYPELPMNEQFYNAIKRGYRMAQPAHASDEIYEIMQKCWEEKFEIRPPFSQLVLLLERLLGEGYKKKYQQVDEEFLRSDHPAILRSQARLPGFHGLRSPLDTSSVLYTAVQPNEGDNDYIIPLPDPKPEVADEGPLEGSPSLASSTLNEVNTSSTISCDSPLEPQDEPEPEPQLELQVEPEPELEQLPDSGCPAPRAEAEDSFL

[3] = tested on: HOS-TE85; test: Antiproliferative activity against human MNNG/HOS cells xenografted in BALB/c nude mouse assessed as suppression of tumor growth at 15 to 30 mg/kg/day, po dosed for 14 days by immunohistochemistry analysis; format: functional, organism-based; conditions: dose lower […], dose upper 30.0 mg/kg/day, time 14.0 day
[4] = tested on: MG-63; test: Inhibition of cell migration in human MG-63 cells assessed as reduction of cell mobility after 48 hrs by scratch-wound healing assay; format: functional, cell-based; conditions: dose 0.1-0.4 µM, DDE = dose-dependent effect
[5] = target: T1, Platelet-derived growth factor receptor beta; test: Inhibition of PDGFRbeta-mediated downstream signalling in human MNNG/HOS cells assessed as suppression of ERK phosphorylation at 0.1 to 0.4 uM measured after 48 hrs by western blot analysis; format: cell-based; conditions: dose 0.1-0.4 µM
[6] = tested on: HOS-TE85; test: Induction of apoptosis in human MNNG/HOS cells at 0.4 uM after 48 hrs by Annexin V/PI staining based flow cytometric analysis; format: functional, cell-based
[7] = tested on: HOS-TE85; test: Inhibition of cell migration in human MNNG/HOS cells at 0.1 to 0.4 uM measured for 48 hrs scratch wound healing migration assay; format: functional, cell-based; conditions: dose 0.1-0.4 µM
[8] = tested on: MG-63; test: Inhibition of cell invasion in human MG-63 cells at 0.1 to 0.4 uM measured after 48 hrs by crystal violet staining based transwell assay; format: functional; conditions: dose 0.1-0.4 µM
[9] = tested on: HOS-TE85; test: In vivo inhibition of PDGFRbeta-mediated downstream signalling in human MNNG/HOS cells xenografted in BALB/c nude mouse assessed as phosphorylation of STAT3 in tumor tissue at 15 to 30 mg/kg/day, po for 14 days; format: functional, organism-based; conditions: dose lower […], dose upper 30.0 mg/kg/day, time 14.0 day
[10] = tested on: HOS-TE85; test: Inhibition of alpha tubulin expression in human MNNG/HOS cells assessed as effect on microtubule network at 0.1 to 0.4 uM by DAPI staining based immunofluorescence microscopic analysis; format: functional, cell-based; conditions: dose 0.1-0.4 µM
[11] = tested on: MG-63; test: Inhibition of FAK expression in human MG-63 cells incubated for 48 hrs by Western blot analysis; format: functional, cell-based; conditions: dose 0.1-0.4 µM, DDE = dose-dependent effect
[12] = tested on: HOS-TE85; test: Inhibition of alpha tubulin expression in human MNNG/HOS cells at 0.1 to 0.4 uM measured after 48 hrs by western blot analysis; format: functional, cell-based; conditions: dose 0.1-0.4 µM
[13] = target: T1, Platelet-derived growth factor receptor beta; test: Inhibition of PDGFRbeta-mediated downstream signalling in human MNNG/HOS cells assessed as suppression of AKT phosphorylation at 0.1 to 0.4 uM measured after 48 hrs by western blot analysis; format: cell-based; conditions: dose 0.1-0.4 µM
[14] = target: Focal adhesion kinase 1 (Homo sapiens) (UniProt Q05397); test: Inhibition of FAK phosphorylation in human MG-63 cells incubated for 48 hrs by Western blot analysis; format: cell-based; conditions: dose 0.1-0.4 µM, DDE = dose-dependent effect
Focal adhesion kinase 1 (Homo sapiens), sequence (Q05397 2-1052 limits assumed): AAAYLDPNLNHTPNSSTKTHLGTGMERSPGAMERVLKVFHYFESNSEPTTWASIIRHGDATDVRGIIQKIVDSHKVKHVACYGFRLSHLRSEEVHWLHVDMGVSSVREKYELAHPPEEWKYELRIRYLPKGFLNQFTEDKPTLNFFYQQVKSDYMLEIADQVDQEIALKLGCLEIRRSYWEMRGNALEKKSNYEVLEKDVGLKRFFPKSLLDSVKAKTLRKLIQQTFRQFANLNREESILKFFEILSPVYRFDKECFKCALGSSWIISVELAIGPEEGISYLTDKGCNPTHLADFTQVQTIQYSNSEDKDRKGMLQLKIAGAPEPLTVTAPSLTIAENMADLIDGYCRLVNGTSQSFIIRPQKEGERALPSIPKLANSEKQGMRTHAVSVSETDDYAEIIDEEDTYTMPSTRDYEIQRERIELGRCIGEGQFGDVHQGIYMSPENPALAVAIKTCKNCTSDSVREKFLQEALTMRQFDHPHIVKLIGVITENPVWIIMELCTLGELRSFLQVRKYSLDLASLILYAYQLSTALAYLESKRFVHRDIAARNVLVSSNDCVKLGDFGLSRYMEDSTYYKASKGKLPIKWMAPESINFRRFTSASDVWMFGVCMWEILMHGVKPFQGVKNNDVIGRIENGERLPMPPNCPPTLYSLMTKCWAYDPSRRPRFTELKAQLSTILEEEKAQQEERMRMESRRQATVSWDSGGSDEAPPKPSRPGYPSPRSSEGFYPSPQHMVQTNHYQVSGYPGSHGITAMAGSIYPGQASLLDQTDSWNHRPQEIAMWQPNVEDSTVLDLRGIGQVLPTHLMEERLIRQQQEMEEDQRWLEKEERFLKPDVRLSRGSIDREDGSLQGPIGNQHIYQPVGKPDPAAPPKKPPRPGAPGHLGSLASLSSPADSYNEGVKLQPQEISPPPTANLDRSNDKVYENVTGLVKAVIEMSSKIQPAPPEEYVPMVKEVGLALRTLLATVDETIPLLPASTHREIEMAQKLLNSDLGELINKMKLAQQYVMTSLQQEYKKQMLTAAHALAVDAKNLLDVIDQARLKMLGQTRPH

[15] = target: T1, Platelet-derived growth factor receptor beta; test: Inhibition of PDGFRbeta-mediated downstream signalling in human MG-63 cells assessed as suppression of STAT3 phosphorylation at 0.1 uM measured after 48 hrs by western blot analysis; format: cell-based
[16] = target: T1, Platelet-derived growth factor receptor beta; test: Binding affinity to PDGFRbeta (unknown origin)
[17] = tested on: HOS-TE85; test: Antiinvasive activity against human MNNG/HOS cells assessed as expression of FAK by measuring fluorescence at 0.1 to 0.4 uM upto 48 hrs by DAPI staining based immunofluorescence microscopic analysis; format: functional, cell-based; conditions: dose 0.1-0.4 µM

CCN1CCN(c2ccc(Nc3ncc(C)c(Nc4ccc5cn[nH]c5c4)n3)cc2OC)CC1
active: Activity [1] | inhibition [2] Dde | Activity [3] | inhibition [4] Dde | inhibition [5] | Activity [6] | inhibition [7] | inhibition [8] | inhibition [9] | inhibition [10] | inhibition [11] Dde | inhibition [12] | inhibition [13] | inhibition [14] Dde | inhibition [15] | Activity [16] | Activity [17]
